Experimental findings from article PMC11351458, “Bioaffinity Ultrafiltration Combined with HPLC-ESI-qTOF-MS/MS for Screening Potential Bioactive Components from the Stems of Dendrobium fimbriatum and In Silico Analysis” (Antioxidants, 2024) are described below.

Assay [1] has as its target T1, inducible nitric oxide synthase (iNOS) (Mus musculus, UniProt P29477).
T1 construct: purchased Sigma-Aldrich (St. Louis, MO, USA)
The experiment in a line: Bioaffinity ultrafiltration assay with inducible nitric oxide synthase. Type of assay: binding. Conditions: components of EtOAc extract; EF = (A1 − A2)/A0 × 100%. How it is done: (§1) The bioaffinity ultrafiltration assay was conducted using a previously described procedure. […] The reaction was conducted at 37 °C for 30 min, then centrifuged using a 14,000× g ultracentrifuge filter at 30 °C for 15 min. The filtrate was removed and 200 μL of Tris-HCl buffer was added to the ultracentrifuge filter and centrifuged at 14,000× g for 15 min at 30 °C. The previous step was repeated 3 times and the filtrate was removed. Then, 200 μL of methanol was added to the ultracentrifuge filter and centrifuged at 14,000× g for 15 min at 30 °C. The previous step was repeated 3 times and the filtrate was collected. The filtrate was concentrated and then dissolved in 50 μL MeOH for HPLC analysis. In addition, the processing of iNOS-ligand complexes was conducted following previously reported methods, while inducible nitric oxide synthase bioaffinity ultrafiltration assays were performed, as detailed above.
(§2) The binding affinity of compounds and enzymes using enrichment factor (EF) was assessed, and was counted as follows: A1, A2, and A0 represent the peak areas of picked compounds acquired from the extracts incubated with activated, inactivated, and no acetylcholinesterase, respectively. EF (%) = (A1 − A2)/A0 × 100%

Assay [2] relates to LPS-induced iNOS expression in RAW 264.7 murine macrophages. In words: Western blotting of LPS-induced iNOS expression. Conditions: 50 μM; LPS-induced RAW 264.7; Western blot. Type of assay: cell-based. How it is done:
Western blotting was conducted with the previous procedure. Cells were treated with different concentrations of compounds and 100 ng/mL of LPS for a day. After rinsing cells with cold PBS, proteins were harvested with radioimmunoprecipitation assay buffer (RIPA buffer) and stored at −20 °C for succeeding procedure. Proteins were separated on a 12.5% SDS-polyacrylamide gel and then electrophoretically transferred to a PVDF membrane. The membrane was soaked in 2% bovine serum albumin (BSA) blocking buffer for 2 h, then washed 2–3 times with TBST. Proteins were treated by particular primary antibodies and immersed overnight. The following day, PVDF membranes were washed with TBST to remove residual primary antibodies, and then immersed with secondary antibodies for 2 h. Then, enhanced chemiluminescence solution was coated on the membrane and visualized using an ImageQuant LAS 4000 Mini Biomolecular Imager (GE Healthcare, Marlborough, MA, USA). Finally, we quantified band density by ImageJ software 1.53a (BioTechniques, New York, NY, USA).
On the technique in general: Immunoblotting shows a protein as a band on a membrane.

Assay [3] is described as follows: DPPH radical scavenging activity. Conditions: isolated components; 50% free radical scavenging; read-out: SC50 DPPH. The protocol:
The DPPH radical scavenging effect was measured based on the reported method. BHT was applied as a positive control. DPPH solution was prepared diluted by EtOH to reach the final concentration of 400 µM. Different concentrations (400, 200, 100, 50, and 25 µg/mL) of extracts or compounds (100 µL) were mixed with DPPH solution (100 µL) and incubated for 30 min at room temperature and in darkness, and the absorbance of the mixture was measured at 520 nm.

A further assay addresses α-glucosidase. The experiment in a line: α-Glucosidase inhibitory activity assay. Conditions: isolated compounds. The class given is biochemical. The protocol:
To test the anti-α-glucosidase effect of each solvent extract and each component, a previously described method was used. […] The α-glucosidase solution was diluted to 1 U/mL with 0.1 M sodium phosphate buffer (pH 6.8). Various concentrations of extract or compound (100 µL) and α-glucosidase solution (20 µL) were mixed. Subsequently, 0.53 mM p-NPG (380 µL) was added and incubated at 37 °C for 40 min. The reaction was stopped by adding 500 μL of 0.1 M Na2CO3 solution, and the absorbance was detected at 405 nm.
α-glucosidase inhibition (%) was counted as follows (Asample and Acontrol represent the absorbance of the tested sample and control, respectively):α-glucosidase inhibition (%) = (Acontrol − Asample)/Acontrol × 100%

A short description of assay [4]: Superoxide radical scavenging activity. Conditions: isolated components; 50% free radical scavenging; read-out: SC50 Superoxide. The protocol:
A superoxide radical scavenging assay was performed based on previously reported methods. The superoxide radical was generated in 16 mM Tris-HCl buffer (pH 8.0) containing 50 μL of NBT (300 μM), 50 μL of PMS (120 μM), and 50 μL of different concentrations of the test sample. The reaction was initiated by adding 50 μL of NADH (468 μM) solution to the mixture. After incubating at room temperature for 5 min, the activity of samples was determined by the decrease in absorbance measured at 560 nm against the sample concentration.

A short description of assay [5]: Ferric reducing antioxidant power (FRAP). Conditions: isolated components, mM Trolox equivalents per g. How it is done: FRAP was measured by the method reported in the previous literature. The working solution was mixed with acetate buffer (pH 3.6), ferric chloride solution (20 mM), and TPTZ solution (10 mM TPTZ in 40 mM HCl) at a proportion of 10:1:1, respectively, and freshly prepared before being used. A total of 900 μL of the working solution was warmed to 37 °C and then mixed with 100 μL of the diluted sample, blank or standard, in a microcentrifuge tube. The tubes were vortexed in a dry bath at 37 °C for 40 min. The absorbance was measured at 593 nm. The standard curve was linear between 0 and 100 mM Trolox. Results were expressed as mM TE/g dry weight. Additional dilution was needed if the FRAP value measured was over the linear range of the standard curve.

Assay [6] relates to NO production in RAW 264.7 cells. The experiment in a line: Nitric oxide (NO) inhibition assay. Type of assay: cell-based, murine. Conditions: Mus musculus, RAW264.7, read-out: NO Inhibition IC50. The protocol:
In this experiment, the RAW 264.7 macrophage cell line was used. The cells were stored at −196 °C in liquid nitrogen. After thawing, the cells were cultured in DMEM at 37 °C and 5% CO2 supplemented with 10% FBS, […] L-glutamine, 1 mM sodium pyruvate, 100 μg/mL streptomycin, and 100 U/mL penicillin.
NO inhibition assay was slightly modified from the reported method. The day before the experiment, RAW 264.7 cells were seeded into 96-well plates with 2 × 10^4 cells per well. The cells were pretreated with the sample solution, and then incubated at 37 °C for 1 h. After incubation, the cells were treated with 100 ng/mL of LPS to induce an inflammatory response. After incubation at 37 °C for 20 h, 50 μL of the supernatant was transferred from each well to another 96-well plate and mixed with an equal volume of Griess reagent. Finally, the absorbance was acquired at 550 nm after 20 min of incubation.

Assay [7] concerns the target T2, acetylcholinesterase (AChE) (Electrophorus electricus, UniProt O42275).
T2 construct: purchased Sigma-Aldrich (St. Louis, MO, USA)
In words: biochemical. How it is done:
The acetylcholinesterase inhibitory assay was carried out applying a method described in reference. Briefly, 0.1 M sodium phosphate buffer (pH 8.0, 140 μL), DTNB (10 μL), sample (20 μL), and AChE solution (15 μL) were added to a 96-well microplate and incubated at room temperature for 10 min. Finally, the absorbance was detected with a spectrophotometer at 405 nm.
The acetylcholinesterase inhibitory effect was counted as follows (Asample and Acontrol represent the absorbance of the tested sample and control, respectively):Acetylcholinesterase inhibitory activity (%) = (Acontrol − Asample)/Acontrol × 100%

Assay [8] concerns the target T2, acetylcholinesterase (AChE). The experiment in a line: Bioaffinity ultrafiltration assay with acetylcholinesterase. Type of assay: binding. Conditions: components of EtOAc extract; EF = (A1 − A2)/A0 × 100%. How it is done: as §1, §2
Assay [9] is described as follows: ABTS cation radical scavenging activity. Conditions: isolated components; 50% free radical scavenging; read-out: SC50 ABTS. How it is done: The ABTS cation radical scavenging effect was measured, as previously described by. […] The working solution was diluted by EtOH to reach the absorbance of 0.70 ± 0.02 at 740 nm for further experiments. Different concentrations (400, 200, 100, 50, and 25 µg/mL) of extracts or compounds (10 µL) were mixed with the working solution (190 μL). The mixture was incubated at room temperature for 6 min, and the antioxidant activity of the mixture was determined by the decrease in absorbance measured at 740 nm.

Marks after values point to notes of the source that are not given here.

T2 sequence (O42275 24-633): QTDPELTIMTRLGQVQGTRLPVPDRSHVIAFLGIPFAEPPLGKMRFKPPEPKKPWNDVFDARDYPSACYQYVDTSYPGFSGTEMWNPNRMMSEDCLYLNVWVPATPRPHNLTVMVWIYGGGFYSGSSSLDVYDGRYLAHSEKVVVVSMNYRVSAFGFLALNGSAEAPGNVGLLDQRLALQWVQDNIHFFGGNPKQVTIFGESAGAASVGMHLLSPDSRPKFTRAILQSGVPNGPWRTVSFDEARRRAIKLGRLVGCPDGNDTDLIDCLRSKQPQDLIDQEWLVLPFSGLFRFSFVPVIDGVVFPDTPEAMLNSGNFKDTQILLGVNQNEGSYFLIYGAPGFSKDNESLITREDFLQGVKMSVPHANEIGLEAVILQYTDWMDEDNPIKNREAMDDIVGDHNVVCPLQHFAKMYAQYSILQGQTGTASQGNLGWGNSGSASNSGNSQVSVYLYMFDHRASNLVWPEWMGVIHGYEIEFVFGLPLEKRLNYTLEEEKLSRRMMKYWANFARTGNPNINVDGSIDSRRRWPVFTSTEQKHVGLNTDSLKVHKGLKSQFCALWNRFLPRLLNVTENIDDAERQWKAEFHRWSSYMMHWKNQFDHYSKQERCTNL

The IC50 is the concentration that inhibits the measured activity by half. With `COc1cc(O)cc2ccc3cccc(O)c3c12` [Moscatin (2), moscatin], the “iNOS EF (enrichment factor)” value in assay [1] came to 88.99%. The “inhibition of iNOS expression” value in assay [2] is on record as 69.76%. For the same compound, the EC50 is 26.7 ± 1.63 µM in assay [3], greater than 400 µM in assay [4] and 10.3 ± 1.92 µM in assay [9]. The IC50 worked out at 478 ± 33.4 µM against α-glucosidase, 23.5 ± 3.16 µM in [6] and 162 ± 16.5 µM in assay [7]. Further, the “TE FRAP” value is given as 1396.40 ± 57.03 ^c mM/g in [5] and 1396.40 ± 57.03 mM/g in [5] (listed as moscatin). Also, the “AChE EF (enrichment factor)” value in [8] came out at 66.31%.
